Key:
Assay in all cases: relative viability (nuclei count vs DMSO), 5 days (fraction); higher = more cells survive
Silmitasertib + Olaparib = compound: O=C(O)c1ccc2c(c1)nc(Nc1cccc(Cl)c1)c1ccncc12 [Silmitasertib] + O=C(c1cc(Cc2n[nH]c(=O)c3ccccc23)ccc1F)N1CCN(C(=O)C2CC2)CC1 [Olaparib] (partner 8 µM)
How it was run: (§1)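 Relative viability equals treated-well nuclei counts divided by vehicle-well nuclei counts. Counts came from 4× images of lung cancer cell lines grown in 1536-well plates for 5 days after pin-tool dosing on the day after seeding. Dosing used one drug alone or a fixed anchor-drug dose plus five library-drug doses (not always all listed) in √10 steps, and values are medians of duplicate plates.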

[1] = compound: O=C(O)c1ccc2c(c1)nc(Nc1cccc(Cl)c1)c1ccncc12 [Silmitasertib] + CC1(C)CCC(c2ccc(Cl)cc2)=C(CN2CCN(c3ccc(C(=O)NS(=O)(=O)c4ccc(N[C@H](CCN5CCOCC5)CSc5ccccc5)c(S(=O)(=O)C(F)(F)F)c4)cc3)CC2)C1 [Navitoclax] (partner 0.5 µM)
How it was run: as §1

[2] = compound: O=C(O)c1ccc2c(c1)nc(Nc1cccc(Cl)c1)c1ccncc12 [Silmitasertib] + Cc1cc(Nc2cc(N3CCN(C)CC3)nc(Sc3ccc(NC(=O)C4CC4)cc3)n2)n[nH]1 [Tozasertib] (partner 0.1 µM)
How it was run: as §1

[3] = compound: O=C(O)c1ccc2c(c1)nc(Nc1cccc(Cl)c1)c1ccncc12 [Silmitasertib] + CC(=O)Nc1cccc(-n2c(=O)n(C3CC3)c(=O)c3c(Nc4ccc(I)cc4F)n(C)c(=O)c(C)c32)c1 [Trametinib] (partner 0.02 µM)
How it was run: as §1

Silmitasertib + OSI-027 = compound: O=C(O)c1ccc2c(c1)nc(Nc1cccc(Cl)c1)c1ccncc12 [Silmitasertib] + COc1cccc2cc(-c3nc([C@H]4CC[C@H](C(=O)O)CC4)n4ncnc(N)c34)[nH]c12 [OSI-027] (partner 0.5 µM)
How it was run: as §1

Cell Line | relative viability (Silmitasertib + Olaparib; first compound 0.04 µM) | relative viability (Silmitasertib + Olaparib; first compound 0.4 µM) | relative viability (Silmitasertib + Olaparib; first compound 1.265 µM) | relative viability (Silmitasertib + Olaparib; first compound 4 µM) | relative viability ([1]; first compound 0.04 µM) | relative viability ([1]; first compound 0.4 µM) | relative viability ([1]; first compound 1.265 µM) | relative viability ([1]; first compound 4 µM) | relative viability ([2]; first compound 0.04 µM) | relative viability ([2]; first compound 0.4 µM) | relative viability ([2]; first compound 1.265 µM) | relative viability ([2]; first compound 4 µM) | relative viability ([3]; first compound 0.04 µM) | relative viability ([3]; first compound 0.4 µM) | relative viability ([3]; first compound 1.265 µM) | relative viability ([3]; first compound 4 µM) | relative viability (Silmitasertib + OSI-027; first compound 0.04 µM) | relative viability (Silmitasertib + OSI-027; first compound 0.4 µM) | relative viability (Silmitasertib + OSI-027; first compound 1.265 µM) | relative viability (Silmitasertib + OSI-027; first compound 4 µM)
201T | 0.82 | 0.756 | 0.945 | 0.953 | 1.21 | 1.19 | 1.26 | 1.31 | 0.955 | 0.818 | 1.04 | 1.05 | 0.738 | 0.709 | 0.804 | 0.893 | 0.821 | 0.631 | 0.719 | 0.462
A549 | 0.301 | – | 0.273 | 0.12 | 1.44 | 1.16 | 1.27 | 1.04 | – | – | – | – | – | – | – | – | – | – | – | –
A-427 | 0.87 | 0.616 | 0.762 | 0.579 | 1.05 | – | 0.943 | 0.566 | 0.19 | – | 0.132 | 0.15 | 0.952 | 0.595 | 0.785 | 0.497 | 0.617 | – | 0.425 | 0.192
ABC-1 | 0.814 | 0.863 | 0.777 | 0.738 | – | – | – | – | 0.19 | 0.165 | 0.185 | 0.193 | – | – | – | – | 0.52 | 0.37 | 0.221 | 0.226
BEN | 1.31 | 0.506 | 0.964 | 1.15 | 0.0617 | 0.0687 | 0.059 | 0.0431 | 0.435 | 0.367 | 0.481 | 0.422 | 1.14 | 0.856 | 1.02 | 0.968 | 0.317 | – | 0.336 | 0.269
CAL-12T | 0.688 | 0.465 | 0.561 | 0.531 | 1.39 | 1.16 | 1.19 | 0.387 | 0.292 | 0.282 | 0.227 | 0.175 | 0.444 | 0.3 | 0.394 | 0.284 | 0.839 | 0.542 | 0.29 | 0.23
COR-L23 | 0.393 | 0.31 | 0.325 | 0.283 | 1.1 | 0.982 | 1.06 | 0.968 | 0.232 | 0.2 | 0.118 | 0.159 | 0.737 | 0.369 | 0.497 | 0.456 | 0.786 | 0.496 | 0.828 | 0.419
COR-L 105 | 0.716 | 0.614 | 0.689 | 0.5 | 0.999 | 0.691 | 0.71 | 0.563 | 0.394 | 0.349 | 0.389 | 0.326 | 0.491 | 0.434 | 0.401 | 0.478 | 0.767 | 0.617 | 0.58 | 0.348
ChaGo-K-1 | 0.421 | 0.288 | 0.376 | 0.399 | 1.45 | 0.917 | 0.84 | 0.574 | 0.198 | 0.219 | 0.231 | 0.241 | 0.938 | 0.704 | 0.821 | 0.907 | 0.602 | 0.456 | 0.567 | 0.353
EKVX | 0.889 | – | 0.7 | 0.784 | 0.874 | 0.648 | 0.681 | 0.681 | 0.434 | 0.25 | 0.295 | 0.405 | 0.385 | – | 0.269 | 0.47 | 0.812 | 0.533 | 0.605 | 0.662
EMC-BAC-2 | 0.477 | 0.358 | 0.333 | 0.283 | 1.24 | 1.03 | 1.14 | 1.09 | 0.291 | 0.272 | 0.198 | 0.162 | 0.977 | 0.845 | 0.684 | 0.698 | 0.395 | 0.348 | 0.276 | 0.249
EPLC-272H | 1.02 | 0.563 | 0.489 | 0.0904 | 1.09 | – | 0.747 | 0.807 | 0.215 | – | 0.205 | 0.187 | 0.319 | – | 0.214 | 0.279 | 0.301 | – | 0.24 | 0.178
H3255 | 0.579 | 0.492 | 0.549 | 0.53 | 0.593 | 0.294 | 0.347 | 0.208 | 0.756 | 0.593 | 0.678 | 0.59 | 0.651 | 0.604 | 0.527 | 0.565 | 0.73 | 0.591 | 0.545 | 0.613
HARA | 1.25 | 0.595 | 0.634 | 0.276 | 1.16 | 0.88 | 0.944 | 0.984 | 0.107 | 0.0804 | 0.0797 | 0.0693 | 0.97 | 0.594 | 0.419 | 0.487 | 0.715 | 0.203 | 0.432 | 0.141
HCC-15 | 0.777 | 0.508 | 0.595 | 0.39 | 0.745 | 0.556 | 0.548 | 0.438 | 0.392 | 0.356 | 0.232 | 0.133 | 0.407 | 0.343 | 0.275 | 0.286 | 0.761 | 0.552 | 0.437 | 0.24
HCC-44 | 0.972 | 0.822 | 1.06 | 1.02 | 0.926 | 0.874 | 0.892 | 0.928 | 1.13 | 0.853 | 0.802 | 0.691 | 1.15 | 0.906 | 1.02 | 1.07 | 0.524 | 0.606 | 0.508 | 0.29
HCC-78 | 0.92 | 0.42 | 0.509 | 0.734 | 0.892 | 0.672 | 0.757 | 0.65 | 0.446 | 0.315 | 0.384 | 0.492 | 0.794 | 0.615 | 0.537 | 0.656 | 0.437 | 0.346 | 0.369 | 0.335

Reference: the supplement of paper PMC10307832
